# Columns and labels:
# [1] = molecular target: AChE (Electrophorus electricus, UniProt O42275); test: Enzyme kinetics of AChE inhibition; type: biochemical; settings: for Vmax (μmol/min)^−^1: Vmax of AChE, not apparent
# [2] = molecular target: AChE EC 3.1.1.7 (Electrophorus electricus, UniProt O42275); test: biochemical
# [3] = test system: rabbit jejunum; test: Spasmolytic activity on spontaneous contraction of isolated rabbit jejunum; settings: spontaneously contracting isolated rabbit jejunum; Mean ± SEM, n = 3
# [4] = test system: rabbit jejunum; settings: high K+ (80 mM)-contracted isolated rabbit jejunum; Mean ± SEM, n = 3
# [5] = Cytotoxicity: human neutrophil viability assay; type: cell-based; settings: human
# [6] = test system: human neutrophils; test: Cytotoxicity: human neutrophil viability assay; type: cell-based; settings: 200 μg/mL
# Chain of AChE (O42275 24-633): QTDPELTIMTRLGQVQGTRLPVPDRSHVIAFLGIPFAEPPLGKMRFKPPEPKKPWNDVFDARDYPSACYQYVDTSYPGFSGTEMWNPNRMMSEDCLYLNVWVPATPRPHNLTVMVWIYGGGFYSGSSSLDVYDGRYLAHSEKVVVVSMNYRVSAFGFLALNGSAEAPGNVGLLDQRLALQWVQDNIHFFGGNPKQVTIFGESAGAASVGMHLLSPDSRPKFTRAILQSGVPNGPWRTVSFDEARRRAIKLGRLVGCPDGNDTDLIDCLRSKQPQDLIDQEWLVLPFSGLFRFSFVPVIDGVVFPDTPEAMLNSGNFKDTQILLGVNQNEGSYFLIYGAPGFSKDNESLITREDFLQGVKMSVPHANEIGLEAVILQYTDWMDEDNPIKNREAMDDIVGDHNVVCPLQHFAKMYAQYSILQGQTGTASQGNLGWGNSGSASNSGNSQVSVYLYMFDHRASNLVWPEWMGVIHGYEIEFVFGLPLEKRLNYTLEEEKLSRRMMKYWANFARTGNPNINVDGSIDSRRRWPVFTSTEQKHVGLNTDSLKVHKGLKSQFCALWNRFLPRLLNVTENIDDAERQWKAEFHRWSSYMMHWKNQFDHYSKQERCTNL
# Chain of AChE EC 3.1.1.7 (O42275 24-633): as above
compound,measurement,setting,value
"CCSc1nc2ccccc2n1Cc1nnc(-c2ccc(F)cc2)o1 [Compound 15, 2-((2-(Ethylthio)-1H-benzo[d]imidazole-1-yl)methyl)-5-(4-fluorophenyl)-1,3,4-oxadiazole]",Ki,[1],53.3 ± 1.4 µM
same,type of inhibition,[1],noncompetitive
same,Vmax (μmol/min)^−^1,[1],5.0 (μmol/min)^−^1
same,IC50,[2],130.5 ± 1.03 µM
"CCCCCCCc1nnc(Cn2c(SCC)nc3ccccc32)o1 [Compound 16, 2-((2-(Ethylthio)-1H-benzo[d]imidazole-1-yl)methyl)-5-heptyl-1,3,4-oxadiazole]",Ki,[1],18.3 ± 1.7 µM
same,type of inhibition,[1],noncompetitive
same,Vmax (μmol/min)^−^1,[1],5.0 (μmol/min)^−^1
same,"Effective dose (ED50), Spontaneous",[3],0.12 ± 0.00 µg/mL
same,"Effective dose (ED50), High K+",[4],0.22 ± 0.01 µg/mL
same,"viability at 30 min, 200 µg/ml",[5],96.1 ± 2.5%
same,toxicity in the neutrophil viability assay (in words),[6],nontoxic
same,IC50,[2],41.9 ± 0.67 µM
"CCSc1nc2ccccc2n1Cc1nnc(-c2ccco2)o1 [Compound 17, 2-((2-(Ethylthio)-1H-benzo[d]imidazole-1-yl)methyl)-5-(furan-2-yl)-1,3,4-oxadiazole]",Ki,[1],24.3 ± 1.3 µM
same,type of inhibition,[1],noncompetitive
same,Vmax (μmol/min)^−^1,[1],5.0 (μmol/min)^−^1
same,"Effective dose (ED50), Spontaneous",[3],0.13 ± 0.07 µg/mL
same,"Effective dose (ED50), High K+",[4],0.26 ± 0.05 µg/mL
same,"viability at 30 min, 200 µg/ml",[5],100 ± 1%
same,toxicity in the neutrophil viability assay (in words),[6],nontoxic
same,IC50,[2],69.7 ± 0.95 µM
"CCSc1nc2ccccc2n1Cc1nnc(-c2cccc(OC)c2O)o1 [Compound 18, 2-(5-((2-(Ethylthio)-1H-benzo[d]imidazole-1-yl)methyl)-1,3,4-oxadiazol-2-yl)-6-methoxyphenol]",Ki,[1],98.77 ± 0.7 µM
same,type of inhibition,[1],noncompetitive
same,Vmax (μmol/min)^−^1,[1],5.0 (μmol/min)^−^1
same,IC50,[2],248.8 ± 1.02 µM
"CCOc1cccc(-c2nnc(Cn3c(SCC)nc4ccccc43)o2)c1O [Compound 19, 2-Ethoxy-6-(5-((2-(ethylthio)-1H-benzo[d]imidazole-1-yl)methyl)-1,3,4-oxadiazol-2-yl)phenol]",Ki,[1],93.3 ± 1.5 µM
same,type of inhibition,[1],noncompetitive
same,Vmax (μmol/min)^−^1,[1],5.0 (μmol/min)^−^1
same,IC50,[2],223.5 ± 0.96 µM
"CCSc1nc2ccccc2n1Cc1nnc(-c2ccc(OC)cc2)o1 [Compound 20, 2-((2-(Ethylthio)-1H-benzo[d]imidazole-1-yl)methyl)-5-(4-methoxyphenyl)-1,3,4-oxadiazole]",Ki,[1],147 ± 1.9 µM
same,type of inhibition,[1],noncompetitive
same,Vmax (μmol/min)^−^1,[1],5.0 (μmol/min)^−^1
same,IC50,[2],380.1 ± 0.87 µM
"CCSc1nc2ccccc2n1Cc1nnc(-c2ccccc2OC)o1 [Compound 21, 2-((2-(Ethylthio)-1H-benzo[d]imidazole-1-yl)methyl)-5-(2-methoxyphenyl)-1,3,4-oxadiazole]",Ki,[1],112 ± 1.3 µM
same,type of inhibition,[1],noncompetitive
same,Vmax (μmol/min)^−^1,[1],5.0 (μmol/min)^−^1
same,IC50,[2],291.9 ± 1.52 µM
"CCSc1nc2ccccc2n1Cc1nnc(-c2ccc(C)o2)o1 [Compound 22, 2-((2-(Ethylthio)-1H-benzo[d]imidazole-1-yl)methyl)-5-(5-methylfuran-2-yl)-1,3,4-oxadiazole]",Ki,[1],32.1 ± 1.4 µM
same,type of inhibition,[1],noncompetitive
same,Vmax (μmol/min)^−^1,[1],5.0 (μmol/min)^−^1
same,IC50,[2],97.94 ± 0.79 µM
"CCSc1nc2ccccc2n1Cc1nnc(-c2ccccc2Cl)o1 [Compound 23, 2-(2-Chlorophenyl)-5-((2-(ethylthio)-1H-benzo[d]imidazole-1-yl)methyl)-1,3,4-oxadiazole]",Ki,[1],45.1 ± 0.9 µM
same,type of inhibition,[1],noncompetitive
same,Vmax (μmol/min)^−^1,[1],5.0 (μmol/min)^−^1
same,IC50,[2],118 ± 1.41 µM
"CCSc1nc2ccccc2n1Cc1nnc(-c2ccc(OC)c(OC)c2)o1 [Compound 24, 2-(3,4-Dimethoxyphenyl)-5-((2-(ethylthio)-1H-benzo[d]imidazole-1-yl)methyl)-1,3,4-oxadiazole]",Ki,[1],284.2 ± 1.2 µM
same,type of inhibition,[1],noncompetitive
same,Vmax (μmol/min)^−^1,[1],5.0 (μmol/min)^−^1
same,IC50,[2],692 ± 0.99 µM
"CCSc1nc2ccccc2n1Cc1nnc(-c2ccc(Cl)cc2)o1 [Compound 25, 2-(4-Chlorophenyl)-5-((2-(ethylthio)-1H-benzo[d]imidazole-1-yl)methyl)-1,3,4-oxadiazole]",Ki,[1],83.21 ± 0.6 µM
same,type of inhibition,[1],noncompetitive
same,Vmax (μmol/min)^−^1,[1],5.0 (μmol/min)^−^1
same,IC50,[2],208.3 ± 1.39 µM
"CCSc1nc2ccccc2n1Cc1nnc(-c2ccc(O)cc2)o1 [Compound 26, 4-(5-((2-(Ethylthio)-1H-benzo[d]imidazole-1-yl)methyl)-1,3,4-oxadiazol-2-yl)phenol]",Ki,[1],30.5 ± 1.9 µM
same,type of inhibition,[1],noncompetitive
same,Vmax (μmol/min)^−^1,[1],5.0 (μmol/min)^−^1
same,IC50,[2],93.2 ± 0.96 µM
"CCSc1nc2ccccc2n1Cc1nnc(-c2cc(OC)c(OC)c(OC)c2)o1 [Compound 27, 2-((2-(Ethylthio)-1H-benzo[d]imidazole-1-yl)methyl)-5-(3,4,5-trimethoxyphenyl)-1,3,4-oxadiazole]",Ki,[1],775.02 ± 0.5 µM
same,type of inhibition,[1],noncompetitive
same,Vmax (μmol/min)^−^1,[1],5.0 (μmol/min)^−^1
same,IC50,[2],1580.2 ± 0.76 µM
"CCSc1nc2ccccc2n1Cc1nnc(-c2ccc([N+](=O)[O-])cc2)o1 [Compound 28, 2-((2-(Ethylthio)-1H-benzo[d]imidazole-1-yl)methyl)-5-(4-nitrophenyl)-1,3,4-oxadiazole]",Ki,[1],289.2 ± 0.8 µM
same,type of inhibition,[1],noncompetitive
same,Vmax (μmol/min)^−^1,[1],5.0 (μmol/min)^−^1
same,IC50,[2],750.9 ± 1.19 µM
"CCSc1nc2ccccc2n1Cc1nnc(-c2ccc(F)c(OC)c2)o1 [Compound 29, 2-((2-(Ethylthio)-1H-benzo[d]imidazole-1-yl)methyl)-5-(4-fluoro-3-methoxyphenyl)-1,3,4-oxadiazole]",Ki,[1],34.2 ± 0.9 µM
same,type of inhibition,[1],noncompetitive
same,Vmax (μmol/min)^−^1,[1],5.0 (μmol/min)^−^1
same,IC50,[2],84.2 ± 1.99 µM
"CCSc1nc2ccccc2n1Cc1nnc(-c2ccc(O)cc2O)o1 [Compound 30, 4-(5-((2-(Ethylthio)-1H-benzo[d]imidazole-1-yl)methyl)-1,3,4-oxadiazol-2-yl)benzene-1,3-diol]",Ki,[1],456.71 ± 0.2 µM
same,type of inhibition,[1],noncompetitive
same,Vmax (μmol/min)^−^1,[1],5.0 (μmol/min)^−^1
same,IC50,[2],1190 ± 0.65 µM
"CCSc1nc2ccccc2n1Cc1nnc(-c2ccccc2O)o1 [Compound 31, 2-(5-((2-(Ethylthio)-1H-benzo[d]imidazole-1-yl)methyl)-1,3,4-oxadiazol-2-yl)phenol]",Ki,[1],89.5 ± 1.5 µM
same,type of inhibition,[1],noncompetitive
same,Vmax (μmol/min)^−^1,[1],5.0 (μmol/min)^−^1
same,IC50,[2],248.5 ± 1.81 µM
"CCSc1nc2ccccc2n1Cc1nnc(-c2cccc(O)c2)o1 [Compound 32, 3-(5-((2-(Ethylthio)-1H-benzo[d]imidazole-1-yl)methyl)-1,3,4-oxadiazol-2-yl)phenol]",Ki,[1],148.8 ± 0.2 µM
same,type of inhibition,[1],noncompetitive
same,Vmax (μmol/min)^−^1,[1],5.0 (μmol/min)^−^1
same,IC50,[2],400.7 ± 0.95 µM
"CCSc1nc2ccccc2n1Cc1nnc(-c2cccc(O)c2O)o1 [Compound 33, 3-(5-((2-(Ethylthio)-1H-benzo[d]imidazole-1-yl)methyl)-1,3,4-oxadiazol-2-yl)benzene-1,2-diol]",Ki,[1],121 ± 0.5 µM
same,type of inhibition,[1],noncompetitive
same,Vmax (μmol/min)^−^1,[1],5.0 (μmol/min)^−^1
same,IC50,[2],320.6 ± 1.12 µM
"CCSc1nc2ccccc2n1Cc1nnc(-c2ccc(C)cc2)o1 [Compound 34, 2-((2-(Ethylthio)-1H-benzo[d]imidazole-1-yl)methyl)-5-(p-tolyl)-1,3,4-oxadiazole]",Ki,[1],135.2 ± 0.5 µM
same,type of inhibition,[1],noncompetitive
same,Vmax (μmol/min)^−^1,[1],5.0 (μmol/min)^−^1
same,IC50,[2],377.4 ± 1.57 µM
"CCSc1nc2ccccc2n1Cc1nnc(-c2ccc(N(CC)CC)cc2)o1 [Compound 35, N,N-Diethyl-4-(5-((2-(ethylthio)-1H-benzo[d]imidazole-1-yl)methyl)-1,3,4-oxadiazol-2-yl)aniline]",Ki,[1],101.3 ± 0.3 µM
same,type of inhibition,[1],noncompetitive
same,Vmax (μmol/min)^−^1,[1],5.0 (μmol/min)^−^1
same,IC50,[2],258.1 ± 1.02 µM
"COc1ccc2c3c1O[C@H]1C[C@@H](O)C=C[C@@]31CCN(C)C2 [Galanthamine, reference compound]","viability at 30 min, 200 µg/ml",[5],96 ± 3.1%
